Test results as given in article PMC7126698 (Bioorganic & Medicinal Chemistry, 2008).

Tested on: mature 3CL protease
Assay type: biochemical, SARS coronavirus

H-Thr-Ser-Ala-Val-Leu-Gln-Ser-Gly-Phe-Arg-Lys-NH2 [SO1]
disappearance of SO1: completely disappeared within 1 h
